Data taken from patent US4698332A, “Expectorant” (Mect Corporation, priority 1984, dated 1987).
Where a name gives a salt, the structure may show the parent alone. Read-outs that look alike come from different tables or passages of the source.

How the values were obtained:
palatine mucosa of frog = experiment: Mucociliary transport of frog palatine mucosa (Example 8, Table 6); format: cell-based; settings: for activation at 100 µg/mL: 10^-1 mg/ml; for activation at 100 µg/mL / activation at 10 µg/mL / activation at 1 µg/mL / activation at 0.1 µg/mL: mean ± SD, over 20.0% significant, read-out: Acceleration (mucociliary transport); for activation at 10 µg/mL: 10^-2 mg/ml; for activation at 1 µg/mL: 10^-3 mg/ml; for activation at 0.1 µg/mL: 10^-4 mg/ml
Experimental: Mucociliary transport was measured by the particle transport method. After decapitation of a frog, the surface of the palatine mucosa was separated with minimized damage and of fixed to a cork plate in a Petri dish which was then filled with 20 ml of Ringer's solution (trishydrochloric acid). The palatine mucosa was left in this state for 30 minutes before the commencement of measurement. For measurement, the Ringer's solution was removed and fine pieces of cork (capable of passing pharmaceutical sieve No. 5 but not capable of passing No. 6) were placed on the surface of the palatine mucosa, and the time (in seconds) required for the cork piece to move 1 cm was measured. The duration of movement, i.e., moving speed, was measured also in the state immediately after the removal of the Ringer's solution or pharmaceutical solution.

ciliated cell = experiment: Rotating ciliated explant (Example 9, Table 7); format: cell-based; settings: for activation at 100 µg/mL: 10^-1 mg/ml; for activation at 100 µg/mL / activation at 10 µg/mL / activation at 1 µg/mL / activation at 0.1 µg/mL: mean ± SD, > 20.0 significant, read-out: Acceleration (rotating ciliated explant); for activation at 10 µg/mL: 10^-2 mg/ml (terbutaline 1-^-2 [sic]); for activation at 0.1 µg/mL: 10^-4 mg/ml
Experimental: Human ciliated cells were collected from a normal trachea by means of a branchoscope, the ciliated cells being separated by rubbing the bronchus while observing through the branchoscope, while the collection of frog cilitated cells was conducted by rubbing the palatine mucosta, without being specially careful. […] The groups of cells were transferred to a cover slip and one drop of chicken plasma (prepared by Difco Company) and one drop of 50% chicken embryo extract were added to the cells, thus forming clots. The rotary motion in the clots was recorded by means of a video recorder and the number of rotations per minute was measured. The agents were dissolved in the Medium 199 and were injected through a tube attached to a rose chamber. The state of rotary motion 5 minutes, 10 minutes and 15 minutes after the injection were recorded by means of a video recorder, and the number of revolutions was measured.
A test was conducted to examine the above-mentioned effect by using sodium salt of N-Acetylneuraminic Acid, in accordance with the same testing method as that of Example 2.

[1] = system: purulent sputum from patients with diffuse panbronchiolitis; experiment: MTR of purulent sputum after sodium salt treatment (Example 10); design: species or system human sputum; frog palatine mucosa; settings: 1 mg/ml sputum
Experimental: (§1) The sputum used as the specimens was collected from 12 samples of patients suffering from chronic obstructive lung disease. N-acetylneuraminic acid was added to the specimen sputum in the ratios of 5 mg/ml sputum and 1 mg/ml sputum, and the specimen was left for 1 hour at 4° C. before measurement. Sputum which has not been treated by N-acetylneuraminic acid was used as a comparison example. A palatine mucosa obtained from a decapitated frog head was kept at constant temperature and humidity until the mucus liquid of the frog itself depleted. The specimen sputum was placed on the dried palatine mucosa, and the speed of movement of the sputum was observed through a noumenal microscope, thus measuring the MTR. The pH value of the sputum was measured by means of an electronic model HM-SAp pH meter, while the spinnability was measured by a device developed by Nagaoka and Yamanaka (disclosed in Transactions of 2nd Symposium of Cough and sputum, published July 20, 1979). The yield value was measured by Dulfano's double-tube method which is shown in the American Review of Respiratory Diseases, Vol. 104, p88, 1971.
(§2) Effect of sodium salt of N-acetylneuraminic acid on sputum was examined in accordance with the testing method explained in connection with Example 5.

[2] = Rheological properties and pH of purulent sputum after sodium salt treatment (Example 10); design: species or system human; settings: 1 mg/ml sputum
Experimental: as §1, §2

[3] = Acute toxicity test of sodium salt of N-acetylneuraminic acid, mouse (Example 11); design: species or system ICR mice; settings: in vivo
Experimental: (§3) A test was conducted to examine the acute toxicity of sodium salt of N-acetylneuraminic acid, using mice, rats, and guinea pig by means of per as, subcutaneous injection, intravenous injection, intraperitoneal injection, and inhalation.
(§4) 20% (W/V) dissolved in distilled water

[4] = Acute toxicity test of sodium salt of N-acetylneuraminic acid, rat (Example 11); format: in vivo, SD rats; settings: in vivo
Experimental: as §3, §4
(§5) Inhalation was conducted by 1hr exposure to mist.

rat = experiment: as above; format: in vivo, SD rats; settings: inhalation, 1hr exposure to mist
Experimental: as §3, §4, §5

[5] = Acute toxicity test of sodium salt of N-acetylneuraminic acid, guinea pig (Example 11); design: species or system Hartley guinea pig; settings: in vivo, intravenous injection, 95% 2,355-4,087
Experimental: as §3
Hartley guinea pig: 6 weeks old
as §4

[6] = ip, intraperitoneal injection, first line (sex not given)
[7] = ip, intraperitoneal injection, second line (sex not given)
[8] = po, per os, first line (sex not given)
[9] = po, per os, second line (sex not given)
[10] = sc, subcutaneous injection, first line (sex not given)
[11] = sc, subcutaneous injection, second line (sex not given)

## CC(=O)N[C@H]1[C@H]([C@H](O)[C@H](O)CO)OC(O)(C(=O)O)C[C@@H]1O (stereo partly drawn) [sodium salt of N-acetylneuraminic acid]
Palatine mucosa of frog; 5 min, 5 min after applied
  activation at 100 µg/mL: 10.7 ± 19.2%
  activation at 10 µg/mL: 20.8 ± 25.5%
  activation at 1 µg/mL: 16.2 ± 19.5%
  activation at 0.1 µg/mL: 2.6 ± 22.2%
Palatine mucosa of frog; 10 min, 10 min after applied
  activation at 100 µg/mL: 8.5 ± 23.4%
  activation at 10 µg/mL: 18 ± 29.7%
  activation at 1 µg/mL: 18.9 ± 22.1%
  activation at 0.1 µg/mL: 8.5 ± 21.9%
Palatine mucosa of frog; 0.25 h, 15 min after applied
  activation at 100 µg/mL: 7.4 ± 24.7%
  activation at 10 µg/mL: 5.7 ± 24.9%
  activation at 1 µg/mL: 17.7 ± 34%
  activation at 0.1 µg/mL: 7.1 ± 27.2%
Palatine mucosa of frog; Table 6
  Effect on MTR of frog palatine mucosa: acceleration of the MTR of the frog palatine mucosa in a certain dependency on the dose
Palatine mucosa of frog; acetylcholine at 10^-4 mg/ml
  Effect compared with acetylcholine: subtantially equivalent to that of the acetylcholine
Ciliated cell; 10^-3 mg/ml
  Effect on number of rotations: A significant number of rotations was observed
Ciliated cell; 5 min, 5 min after perfusion
  activation at 100 µg/mL: 0%
  activation at 10 µg/mL: 1.5 ± 11.6%
  activation at 0.1 µg/mL: -3.4 ± 9.7%
Ciliated cell; 5 min, 10^-3 mg/ml, 5 min after perfusion
  activation at 1 µg/mL: 11.6 ± 29.8%
Ciliated cell; 10 min, 10 min after perfusion
  activation at 100 µg/mL: 4.7 ± 6.6%
  activation at 10 µg/mL: 2.1 ± 18.2%
  activation at 0.1 µg/mL: 0.6 ± 10.6%
Ciliated cell; 10 min, 10^-3 mg/ml, 10 min after perfusion
  activation at 1 µg/mL: 20.7 ± 27.5%
Ciliated cell; 0.25 h, 15 min after perfusion
  activation at 100 µg/mL: 15.4 ± 9.3%
  activation at 10 µg/mL: 3.7 ± 29.3%
  activation at 0.1 µg/mL: -5 ± 8.2%
Ciliated cell; 0.25 h, 10^-3 mg/ml, 15 min after perfusion
  activation at 1 µg/mL: 16.2 ± 32.3%
[1]
  Change of sputum MTR: significant increase in pH value and MTR
[1]; 15 specimens, mean ± S.D., before 9 ± 5, P < 0.01
  MTR after treatment: 12 ± 5 mm/min.
[2]
  Change of spinnability: generally increased
  Change of sputum pH: significant increase in pH value
  Change of yield value: a reduction was observed with regard to the yield value
[2]; 15 specimens, mean ± S.D., before 0.8 ± 1.5
  Yield value after treatment: 0.3 ± 0.6 mmH2 O
[2]; 15 specimens, mean ± S.D., before 7.48 ± 0.41, P < 0.001
  pH after treatment: 7.91 ± 0.43
[2]; 15 specimens, mean ± S.D., before 13 ± 14
  Spinnability after treatment: 21 ± 28 mm
[3]; [6]
  LD50 at 336 h: > 5000 mg/kg
[3]; [7]
  LD50 at 336 h: > 5000 mg/kg
[3]; iv, intravenous injection, first line (sex not given), 95% 5,679-7,084
  LD50 at 336 h: 6290 mg/kg
[3]; iv, intravenous injection, second line (sex not given), 95% 7,214-9,073
  LD50 at 336 h: 7950 mg/kg
[3]; [8]
  LD50 at 336 h: > 5000 mg/kg
[3]; [9]
  LD50 at 336 h: > 5000 mg/kg
[3]; [10]
  LD50 at 336 h: > 5000 mg/kg
[3]; [11]
  LD50 at 336 h: > 5000 mg/kg
[4]; [6]
  LD50 at 336 h: > 5000 mg/kg
[4]; [7]
  LD50 at 336 h: > 5000 mg/kg
[4]; iv, intravenous injection, first line (sex not given), 95% 2,638-3,342
  LD50 at 336 h: 2970 mg/kg
[4]; iv, intravenous injection, second line (sex not given)
  LD50 at 336 h: > 5000 mg/kg
[4]; [8]
  LD50 at 336 h: > 5000 mg/kg
[4]; [9]
  LD50 at 336 h: > 5000 mg/kg
[4]; [10]
  LD50 at 336 h: > 5000 mg/kg
[4]; [11]
  LD50 at 336 h: > 5000 mg/kg
rat; first line (sex not given)
  LD50: > 4,000 mg/m^3
rat; second line (sex not given)
  LD50: > 4,000 mg/m^3
[5]
  LD50 at 336 h: 2860 mg/kg
